Data: patent US12171757B2, “Crenolanib for treating FLT3 mutated proliferative disorders” (Arog Pharmaceuticals, Inc., priority 2013, dated 2024)

Assays:
[1] = system: relapsed/refractory AML patient with a de novo FLT3-ITD mutation and acquired FLT3-D835 TKD mutation; experiment: Crenolanib besylate single agent therapy, Example 1 patient, clinical trial NCT01522469; format: in vivo, human
Description: (§1) Response criteria for AML clinical trials are adapted from the International Working Group for AML. See Cheson et al. Revised Recommendations of the International Working Group for Diagnosis, Standardization of Response Criteria, Treatment Outcomes, and Reporting Standards for Therapeutic Trials in Acute Myeloid Leukemia. J Clin Oncol. 2003; 21: 4642-4649. Responders are patients who obtain a Complete Response (CR), Complete Response with incomplete blood count recovery (CRi), or Partial Remission (PR). Briefly, criteria are as follows:
To overcome resistance to prior therapy, the patient was provided single agent oral crenolanib besylate on a clinical trial for relapsed or refractory AML patients with a FLT3-D835 TKD mutation (NCT01522469). […] The patient began treatment with 100 mg of oral crenolanib three times daily. […] The patient discontinued crenolanib therapy and underwent allogeneic stem cell transplant.

[2] = system: relapsed/refractory AML patient with a de novo FLT3-ITD mutation and acquired FLT3-D835 TKD mutation; experiment: Crenolanib besylate single agent therapy, Example 2 patient, clinical trial NCT01522469; format: in vivo, human
Description: as §1
To overcome resistance to prior therapy with FLT3 tyrosine kinase inhibitor X, the patient was provided single agent oral crenolanib besylate on a clinical trial for relapsed or refractory AML patients with a FLT3-D835 mutation (NCT01522469). At baseline, the patient presented with 91% bone marrow blasts and 4800 units/uL of absolute circulating peripheral blood blasts. The patient began treatment with 80 mg of oral crenolanib three times daily. […] The patient discontinued crenolanib therapy and underwent allogeneic stem cell transplant.

[3] = system: heavily pretreated relapsed/refractory AML patient with acquired FLT3-ITD and FLT3-D835 TKD mutations; experiment: Crenolanib besylate monotherapy, Example 3 patient, phase II clinical trial NCT01522469; format: in vivo, human
Description: as §1
A 59.2 kg person diagnosed with AML December 2011. Following initial diagnosis the patient was treated with 7+3 induction chemotherapy, followed by consolidation therapy with 1 cycle of high dose cytarabine. Five months later the patient underwent autologous stem cell transplantation with etoposide and busulfan conditioning. […] The patient was treated with 100 mg of crenolanib besylate three times daily. […] The patient discontinued crenolanib therapy to undergo allogeneic stem cell transplantation conditioning. The patient discontinued crenolanib therapy and underwent allogeneic stem cell transplant.

[4] = system: relapsed/refractory AML patient with an acquired FLT3-ITD mutation; experiment: Crenolanib besylate monotherapy, Example 4 patient, phase II clinical trial NCT01522469; format: in vivo, human
Description: as §1
A 60.6 kg person diagnosed with FLT3-negative AML January 2012. […] The patient was then treated with 4 cycles of high dose cytarabine consolidation therapy. […] The patient was treated with 100 mg of crenolanib besylate three times daily. […] The patient discontinued crenolanib therapy and underwent allogeneic stem cell transplant.

[5] = system: refractory or relapsed acute leukemias; settings: patients with refractory or relapsed acute leukemias; cited from earlier work
[6] = day 21 on study drug, 80 mg oral three times daily
[7] = day 15 on study drug, 100 mg three times daily
[8] = day 29 on study drug, 100 mg three times daily
[9] = day 33 on study drug, 100 mg three times daily
[10] = day 58 on study drug, 100 mg three times daily

With CC1(COc2ccc3c(c2)ncn3-c2ccc3cccc(N4CCC(N)CC4)c3n2)COC1 [Crenolanib, 4-Piperidinamine, 1-[2-[5-[(3-methyl-3-oxetanyl)methoxy]-1H-benzimidazol-1-yl]-8-quinolinyl]] the “Clinical response (bone marrow biopsy)” value ([1]; after 29 days of therapy, 100 mg, decreased to 80 mg, oral three times daily) was “complete remission (CR)”, the “Bone Marrow Blast (%)” value ([1]; day 0 on study drug (baseline)) was 75% and the “Bone Marrow Blast (%)” value ([1]; day 29 on study drug, 100 mg, decreased to 80 mg, oral three times daily) was 0%. For the same compound, the “Bone Marrow Blast (%)” value ([1]; day 57 on study drug, 100 mg, decreased to 80 mg, oral three times daily) was 1%, the “Days of therapy to complete clearance of malignant leukemic blasts in peripheral blood” value (from here on “Days of therapy”) ([2]; 80 mg oral three times daily) was 14 days and the “Bone Marrow Blast (%)” value ([2]; day 0 on study drug (baseline)) was 91%. The “Absolute Peripheral Blast Count (units/uL)” value ([2]; day 1 on study drug (baseline value), 80 mg oral three times daily) was 4800 units/uL, the “Absolute Peripheral Blast Count (units/uL)” value ([2]; day 3 on study drug, 80 mg oral three times daily) was 2747 units/uL and the “Absolute Peripheral Blast Count (units/uL)” value ([2]; day 4 on study drug, 80 mg oral three times daily) was 250 units/uL. The “Absolute Peripheral Blast Count (units/uL)” value ([2]; day 7 on study drug, 80 mg oral three times daily) was 49 units/uL, the “Absolute Peripheral Blast Count (units/uL)” value ([2]; day 9 on study drug, 80 mg oral three times daily) was 35 units/uL and the “Absolute Peripheral Blast Count (units/uL)” value ([2]; day 14 on study drug, 80 mg oral three times daily) was 0 units/uL. The “Absolute Peripheral Blast Count (units/uL)” value [2, 6] was 0 units/uL, the “Bone Marrow Blast (%)” value [2, 6] was 32% and the “Absolute Peripheral Blast Count (units/uL)” value ([2]; day 28 on study drug, 80 mg oral three times daily) was 0 units/uL. For the same compound, the “Bone Marrow Blast (%)” value ([2]; day 35 on study drug, 80 mg oral three times daily) was 2%, the “Absolute Peripheral Blast Count (units/uL)” value ([2]; day 37 on study drug, 80 mg oral three times daily) was 0 units/uL and the “Absolute Peripheral Blast Count (units/uL)” value ([2]; day 38 on study drug, 80 mg oral three times daily) was 0 units/uL. For the same compound, the “Absolute Peripheral Blast Count (units/uL)” value ([2]; day 39 on study drug, 80 mg oral three times daily) was 0 units/uL, the “Absolute Peripheral Blast Count (units/uL)” value ([2]; day 40 on study drug, 80 mg oral three times daily) was 0 units/uL and the “Absolute Peripheral Blast Count (units/uL)” value ([2]; day 41 on study drug, 80 mg oral three times daily) was 0 units/uL. For the same compound, the “Absolute Peripheral Blast Count (units/uL)” value ([2]; day 42 on study drug, 80 mg oral three times daily) was 0 units/uL, the “Absolute Peripheral Blast Count (units/uL)” value ([2]; day 43 on study drug, 80 mg oral three times daily) was 0 units/uL and the “Absolute Peripheral Blast Count (units/uL)” value ([2]; day 45 on study drug, 80 mg oral three times daily) was 0 units/uL. For the same compound, the “Absolute Peripheral Blast Count (units/uL)” value ([2]; day 46 on study drug, 80 mg oral three times daily) was 0 units/uL, the “Absolute Peripheral Blast Count (units/uL)” value ([2]; day 47 on study drug, 80 mg oral three times daily) was 0 units/uL and the “Absolute Peripheral Blast Count (units/uL)” value ([2]; day 48 on study drug, 80 mg oral three times daily) was 0 units/uL. For the same compound, the “Absolute Peripheral Blast Count (units/uL)” value ([2]; day 49 on study drug, 80 mg oral three times daily) was 0 units/uL, the “Absolute Peripheral Blast Count (units/uL)” value ([2]; day 50 on study drug, 80 mg oral three times daily) was 0 units/uL and the “Absolute Peripheral Blast Count (units/uL)” value ([2]; day 51 on study drug, 80 mg oral three times daily) was 0 units/uL. The “Absolute Peripheral Blast Count (units/uL)” value ([2]; day 52 on study drug, 80 mg oral three times daily) was 0 units/uL, the “Bone Marrow Blast (%)” value ([2]; day 65 on study drug, 80 mg oral three times daily) was 4-5% and the “Absolute Peripheral Blast Count (units/uL)” value ([2]; day 69 on study drug, 80 mg oral three times daily) was 0 units/uL. The “Clinical response (bone marrow biopsy)” value ([2]; over the course of 65 days of therapy, 80 mg oral three times daily) was “complete remission with incomplete blood count recovery (CRi)”, the “Days of therapy” value ([3]; 100 mg three times daily) was 15 days and the “Clinical response (bone marrow biopsy)” value ([3]; after 33 days of therapy, 100 mg three times daily) was “complete remission with incomplete blood count recovery (CRi)”. For the same compound, the “Absolute Peripheral Blast Count (units/uL)” value ([3]; day 0 on study drug (baseline)) was 196 units/uL, the “Bone Marrow Blast (%)” value ([3]; day 0 on study drug (baseline)) was 60-70% and the “Absolute Peripheral Blast Count (units/uL)” value ([3]; day 14 on study drug, 100 mg three times daily) was 14 units/uL. The “Absolute Peripheral Blast Count (units/uL)” value [3, 7] was 0 units/uL, the “Absolute Peripheral Blast Count (units/uL)” value ([3]; day 16 on study drug, 100 mg three times daily) was 0 units/uL and the “Absolute Peripheral Blast Count (units/uL)” value ([3]; day 17 on study drug, 100 mg three times daily) was 0 units/uL. For the same compound, the “Absolute Peripheral Blast Count (units/uL)” value ([3]; day 18 on study drug, 100 mg three times daily) was 0 units/uL, the “Bone Marrow Blast (%)” value ([3]; day 27 on study drug, 100 mg three times daily) was 10% and the “Absolute Peripheral Blast Count (units/uL)” value ([3]; day 28 on study drug, 100 mg three times daily) was 0 units/uL. The “Absolute Peripheral Blast Count (units/uL)” value [3, 8] was 0 units/uL, the “Absolute Peripheral Blast Count (units/uL)” value ([3]; day 31 on study drug, 100 mg three times daily) was 0 units/uL and the “Absolute Peripheral Blast Count (units/uL)” value ([3]; day 32 on study drug, 100 mg three times daily) was 0 units/uL. The “Absolute Peripheral Blast Count (units/uL)” value [3, 9] was 0 units/uL, the “Bone Marrow Blast (%)” value [3, 9] was 5% and the “Absolute Peripheral Blast Count (units/uL)” value ([3]; day 39 on study drug, 100 mg three times daily) was 0 units/uL. The “Absolute Peripheral Blast Count (units/uL)” value ([3]; day 42 on study drug, 100 mg three times daily) was 0 units/uL, the “Absolute Peripheral Blast Count (units/uL)” value ([3]; day 44 on study drug, 100 mg three times daily) was 0 units/uL and the “Absolute Peripheral Blast Count (units/uL)” value ([3]; day 45 on study drug, 100 mg three times daily) was 0 units/uL. For the same compound, the “Absolute Peripheral Blast Count (units/uL)” value ([3]; day 46 on study drug, 100 mg three times daily) was 0 units/uL, the “Absolute Peripheral Blast Count (units/uL)” value ([3]; day 47 on study drug, 100 mg three times daily) was 0 units/uL and the “Absolute Peripheral Blast Count (units/uL)” value ([3]; day 48 on study drug, 100 mg three times daily) was 0 units/uL. For the same compound, the “Absolute Peripheral Blast Count (units/uL)” value ([3]; day 49 on study drug, 100 mg three times daily) was 0 units/uL, the “Absolute Peripheral Blast Count (units/uL)” value ([3]; day 50 on study drug, 100 mg three times daily) was 0 units/uL and the “Absolute Peripheral Blast Count (units/uL)” value ([3]; day 51 on study drug, 100 mg three times daily) was 0 units/uL. For the same compound, the “Absolute Peripheral Blast Count (units/uL)” value ([3]; day 52 on study drug, 100 mg three times daily) was 0 units/uL, the “Days of therapy” value ([4]; 100 mg three times daily) was 15 days and the “Clinical response (bone marrow biopsy)” value ([4]; after 29 days of therapy, 100 mg three times daily) was “complete remission with incomplete blood count recovery (CRi)”. For the same compound, the “Absolute Peripheral Blast Count (cells/uL)” value ([4]; day 0 on study drug (baseline)) was 198 cells/uL, the “Bone Marrow Blast (%)” value ([4]; day 0 on study drug (baseline)) was 76% and the “Absolute Peripheral Blast Count (cells/uL)” value ([4]; day 1 on study drug, 100 mg three times daily) was 130 cells/uL. For the same compound, the “Absolute Peripheral Blast Count (cells/uL)” value ([4]; day 8 on study drug, 100 mg three times daily) was 19 cells/uL, the “Absolute Peripheral Blast Count (cells/uL)” value [4, 7] was 0 cells/uL and the “Absolute Peripheral Blast Count (cells/uL)” value ([4]; day 22 on study drug, 100 mg three times daily) was 0 cells/uL. For the same compound, the “Absolute Peripheral Blast Count (cells/uL)” value [4, 8] was 0 cells/uL, the “Bone Marrow Blast (%)” value [4, 8] was 1% and the “Absolute Peripheral Blast Count (cells/uL)” value [4, 10] was 0 cells/uL. For the same compound, the “Bone Marrow Blast (%)” value [4, 10] was 1%.

For CNC(=O)c1cc(Oc2ccc(NC(=O)Nc3ccc(Cl)c(C(F)(F)F)c3)cc2)ccn1 [sorafenib], the “Effect on bone marrow (BM) blasts” value [5] is given as “only modest BM blast reductions” and the “Effect on peripheral blood (PB) blasts” value [5] is given as “effective in clearing PB blasts”.
